One compound from patent US20080033041A1, “USE OF PHENYLETHANOLAMINOTETRALINES FOR PREPARING ANXIOLYTIC DRUGS” (SANOFI-AVENTIS, priority 2004, published 2008) can be followed below.

In test [1] the test system is rats of the Wistar strain. Nature of the test: Elevated Plus Maze test. It counts as in vivo, rat. The note with it: 10 mg/kg i.p., 5 minutes observation. The source says:
2) The Elevated Plus Maze Test (Pellow S. et al., Journal of Neuroscience Methods, (1985), 14(3), p.149-67) The animals, their preparation and the i.p. dosage of compound to be tested are the same as those described in the Novelty Induced Grooming test. The apparatus consisted of a plus-shaped maze, elevated of 50 centimetres from the floor, with two opposite open arms (50×10 cm) crossed at right angles by two arms of the same dimensions, but enclosed by 40-centimetre high walls with an open roof. In addition, a 1-centimetre high edge made of plexiglas surrounded the open arms to avoid falls. Illumination measured at the centre of the maze was 40 lux. After treatment, the animal was placed at the centre of the plus maze with its nose in the direction of one of the closed arms, and observed for 5 minutes, according to the following parameters: number of entries in the open and closed arms (this parameter can also be expressed by means of percentage of entries in the open arms), and time of presence in each of them (this parameter can also be expressed by means of percentage of time stayed in the open arms. The time of presence measures the time spent by the animal in the open and closed arms. The animals were divided into four groups with 7 animals per group.

The next test deals with Mongolian gerbils. Nature of the test: Social Interaction test. It counts as in vivo, gerbil. Conditions: 10 mg/kg p.o., 1 hour after administration, control 30 seconds. As for the experimental part:
5) The Social Interaction Test (Salomé et al., Sanofi-Synthelabo Research, CNS Department, Bagneux, France, ibid.) Male Mongolian gerbils (7-week old, 50-60 g, CERJ, France) were used. Experiments were performed 1 hour after per os (p.o.) administration of 10 mg/kg of the drug or vehicle. The procedure was based on that described initially by File et al., Brain Res., (2001), 888, p. 311-313. Testing lasting two days. On day 1, gerbils were placed individually in a plastic box (30×30×20 cm) under high light conditions (300 lux) for a 10-minute free-exploration period to familiarize with the apparatus. Twenty-four hours later, two gerbils of the same weight but unfamiliar to each other were placed together in the box they had previously explored for a 4 minute 30 seconds observation period. Interaction time (sniffing, chasing, grooming the partner) was recorded manually for each pair of gerbils. Locomotor activity (distance travelled in centimetres) was measured with an automated tracking system (Ethovision, Noldus).

The test system of test [2] is rats of the Wistar strain. As to the kind of experiment: Novelty Induced Grooming Test. It counts as in vivo, rat. The note with it: 10 mg/kg i.p., 30 min before test, 30-minute session, control 37 (±3.61). The method, then: 1) The Novelty Induced Grooming Test
(Gipsen et al., (1975), ibid.)
Male rats of the Wistar strain (purchased from Morini, Italy) weighing from 200 to 220 g were used throughout this test. All animals were gently manipulated by experienced facilities' handlers, avoiding any environmental or physical stress. Compounds according to the invention to be tested were injected intraperitoneally (i.p.) to a group of rats at a dosage 10 mg/kg. Control animals received i.p. the same volume of the vehicle (i.e, physiological saline). […]
Rats were placed individually into plexiglas boxes (24×12×24 cm) in a low noise room. After a minute of adaptation, the behaviour of the rats was sampled every 15 seconds, and the occurrence of grooming was recorded in a session of 30 minutes. The occurrence of the following single elements of grooming was scored as grooming: washing (i.e., vibrating movements of the fore paws in front of the snout and licking of the same paws leading to a series of strokes along the snout and semicircular movements over the top of the head), scratching (that is scratching of the body by one of the limbs), licking (that is licking of the body fur, limbs and tail), and genital grooming (that is licking of genital area). Grooming behaviour of all animals was recorded on a tape using a video-camera (Hitachi Videocam) and then replayed and scored by two independent observers. […]

The test system of test [3] is Sprague-Dawley and Wistar rats. Nature of the test: Punished Drinking test. In kind it is in vivo, rat. The note with it: 10 mg/kg i.p., 30 minutes after injection, 5-minute period, control 10. The method, then:
4) The Punished Drinking Test (Griebel et al., (2002), ibid.) Male Sprague-Dawley and Wistar rats (Iffa Credo, L'Arbresle, and Charles River, Saint-Aubin-lès-Elbeuf, France), weighing 180 to 250 g were used. Experiments were performed 30 minutes after i.p. injection of 10 mg/kg of the drug or vehicle. The procedure was a modification of the technique described by Vogel et al., Psychopharmacologia, (1971), 21, p. 1-7. At the beginning of the experiment, rats, deprived of water but not of food for 48 hours prior to testing, were placed in cages (32×25×30 cm) with a stainless steel grid floor. Each cage was placed in sound-attenuated boxes that were well ventilated and contained a drinking tube connected to an external 50 mL burette filled with tap water. Trials were started only after the animal's tongue entered in contact with the drinking tube for the first time. An electric shock (0.6 mA/500 ms) was delivered to the tongue after every twenty licks. The number of shocks was recorded automatically during a 5-minute period. Subsequent comparisons between treatment groups and control were carried out using Dunnett's t-test.

In another test the test system is OF1 mice. Nature of the test: Mouse Defense test Battery. It counts as in vivo. Conditions: 1 hour after administration. The method, then: 6) The Mouse Defense test Battery (Griebel et al., (2002), ibid.) Male OF1 mice weighing 17 to 32 g were supplied by Charles River, Iffa Credo or Janvier (Le Genest, France). Experiments were performed 1 hour after p.o. administration of 0.3 mg/kg or 3 mg/kg of the drug or vehicle. The test was conducted in an oval runway as described (Griebel et al., 1997), 23, p. 19-31). Tested mice were submitted to a 3-minute familiarization period sixty minutes after p.o. administration of compound A. (a) The rat avoidance test/flight: Immediately after the 3-minute familiarization period, the experimenter introduced a hand-held dead rat (killed by CO2 inhalation just before the beginning of the experiment) five times at one end of the runway. The following parameter was recorded: avoidance distance (cm). (b) Risk Assessment/Chase Test: The rat was then brought up to the subject at a speed of approximately 2 m/s. A constant distance of 2 meters separated the rat and the subject when the former was introduced in the runway. The following parameter was recorded: number of stops (pauses in movement). The rat was removed after the chase was completed. (c) Defensive Aggression/Straight Alley: By the closing of two doors (60 cm distant from each other), the runway was then converted to a straight alley in which the subject was constrained. The experimenter brought the rat up to contact the subject in the straight alley. Approaches were directed quickly (within 1 second) to the subject's head. For each such contact, bites by the subjects were recorded.

Test [4] has as its system rats of the Wistar strain. Nature of the test: Ultrasonic Vocalizations (USVs) test. It counts as in vivo, rat. The note with it: 10 mg/kg i.p. The source says: 3) The Ultrasonic Vocalizations (USVs) Test
(Molewijk et al., Psychopharmacology, (1996),128, p. 31-38)
The animals, their preparation and the i.p. dosage of compound to be tested are the same as those described in the Novelty Induced Grooming test.
This test consists of two different sessions: training and testing sessions. In the training procedure, all animals were trained for 2 days prior to testing. Training consisted of placing the animal in a standard operant chamber (ENV-018M, Med Associates, Georgia, Vt.) where shock could be delivered from a programmable shocker (Model ENV-413, Med Associates) and where it is equipped with an ultrasonic detector (Mini-3 Bat Detector, Ultra Sound Advice, UK). On each of two consecutive days, all the animals received 20 shocks (1 mA, 4 seconds) separated by a random interval that averaged 60 seconds and ranging from 30 to 90 seconds. Each shock was administered concurrently with a 4-Watt light and an acoustic tone (85 dB, 4 s). The chamber was dark between each shock presentation.
On the day following training, animals were administered 10 mg/kg of compound A and placed in the operant apparatus for testing. […] USVs (18-22 KHz) were recorded over the intertrial interval and were expressed as a sum of total time spent vocalizing for each animal. […]

`CCOC(=O)COc1ccc2c(c1)C[C@@H](NC[C@H](O)c1cccc(Cl)c1)CC2.Cl` [compound A, ethyl [(7S) 7-[(2R) 2-(3-chlorophenyl)-2-hydroxyethylamino]-5,6,7,8-tetrahydronaphthalen-2yloxy]-acetate hydrochloride]: the “mean number of entries into the open arms” value in test [1] (control 4) is on record as 7. Moreover, in test [1] (control 32%), the “percentage of time in the open arms” value is 42%. The “percentage of entries into the open arms” value in test [1] (control 40%) is 50%. In addition, the “mean time spent in the open arms” value in test [1] (control 78 seconds) stood at 98 s. The Social interaction time in the test with Mongolian gerbils was determined as 70 s. In addition, the “Number of grooming episodes” value in test [2] is reported as 17.71 (±5.91). Moreover, the “Number of shocks (punished responding)” value in test [3] amounted to 30 shocks. The “Number of bites (defensive aggression/straight alley)” value in the test on OF1 mice (0.3 mg/kg p.o., control about 2.75 times) is “about 1.3 times”. Moreover, in the test on OF1 mice (3 mg/kg p.o., control 9 stops), the “Number of stops (risk assessment/chase test)” value was determined as 6 stops. Further, in the test on OF1 mice (3 mg/kg p.o., control 120 cm), the “Avoidance distance (rat avoidance test/flight)” value is 75 cm. For the same compound, the “decrease of conditioned USVs versus control” value in test [4] is given as approximately 50%. Moreover, the “Conditioned USVs duration (total time spent vocalizing)” value in test [4] (control more than 210 seconds) is less than 120 s.
